The subject of test [1] is Streptococcus pneumoniae BS 4. The test can be described thus: In vitro antibacterial activity, MIC, broth microdilution. It is filed as cell-based. The following applies: Streptococcus pneumoniae, BS4; S. pneumoniae BS 4; MHB + 5% horse serum; 37° C., 18 hours; read-out: minimum inhibiting concentration MIC. The method, then:
(§1) a) In vitro antibacterial activity The determination of the minimum inhibiting concentrations (MIC), with respect to Gram-positive and Gram-negative bacteria was carried out through the micromethod of gradual broth dilution in double series [National Committee for Clinical Laboratory Standards, 1990; Methods for dilution antimicrobial susceptibility tests for bacteria that grow aerobically; Approved standards […], Villanova, Pa.], by using Mueller Hinton Broth (MHB) as a culture medium. In the case of […] bacteria, horse serum at 5% (Streptococcus pneumoniae and Streptococcus pyogenes) was added to the medium. Roxithromycin and Clarithromycin [The Merck Index, XI Ed., No. 8253 and 2340, respectively] were used as reference macrolides. MIC, expressed as (μg/ml), were determined after incubation of the microplates at 37° C. for 18 hours, evaluating the lowest antibiotic concentration enabling the inhibition of bacterial development.
Background: In broth dilution the organism is exposed to a series of concentrations in liquid medium.

Test [2] has as its system Streptococcus pyogenes C 203. The description is as above. The format is cell-based. The settings on record: Streptococcus pyogenes, C203; S. pyogenes C 203; MHB + 5% horse serum; 37° C., 18 hours; read-out: minimum inhibiting concentration MIC. The method, then: as §1
Test [3] deals with Streptococcus pyogenes A 26. The description is as above. The following applies: Streptococcus pyogenes, A26; S. pyogenes A 26; MHB + 5% horse serum; 37° C., 18 hours; read-out: minimum inhibiting concentration MIC. The format is cell-based. The method, then: as §1
Test [4] concerns Klebsiella pneumoniae ZC 2. The description is as above. The settings on record: Klebsiella pneumoniae, ZC2; K. pneumoniae ZC 2; MHB; 37° C., 18 hours; read-out: minimum inhibiting concentration MIC. The format is cell-based. Here is the method:
as §1

Test [5] deals with Staphylococcus aureus PV 14. The description is as above. It is filed as cell-based. The settings on record: Staphylococcus aureus, PV14; S. aureus PV 14; MHB; 37° C., 18 hours; read-out: minimum inhibiting concentration MIC. The method, then: as §1
Test [6] relates to Streptococcus pneumoniae BS 3. The test is described as above. It is filed as cell-based. The following applies: Streptococcus pneumoniae, BS3; S. pneumoniae BS 3; MHB + 5% horse serum; 37° C., 18 hours; read-out: minimum inhibiting concentration MIC. Here is the method: as §1
Test [7] relates to Escherichia coli ATCC 25922. The test is described as above. The settings on record: Escherichia coli, ATCC25922; E. coli ATCC 25922; MHB; 37° C., 18 hours; read-out: minimum inhibiting concentration MIC. The format is cell-based. The method, then: as §1
The subject of test [8] is Enterococcus faecalis ATCC 29212. Described as above. The format is cell-based. The settings on record: Enterococcus faecalis, ATCC29212; E. faecalis ATCC 29212; MHB; 37° C., 18 hours; read-out: minimum inhibiting concentration MIC. The method, then:
as §1

Test [9] concerns Streptococcus pyogenes C 203. The test can be described thus: In vivo antibacterial activity, experimental pulmonary infection in mouse. The settings on record: Streptococcus pyogenes, C203, ip, 240 h, intraperitoneal single dose, read-out: average protecting dose PD50. Here is the method:
The in vivo antibacterial activity of the compounds of formula (I), expressed as average protecting dose PD50 (mg/Kg), was evaluated by means of experimental pulmonary infection induced in mouse by Streptococcus pyogenes (example 23).
b) In vivo antibacterial activity
The therapeutical effectiveness, expressed as average protecting dose (PD50), of the considered compounds of formula (I) was evaluated by experimental pulmonary infection induced in mouse by Streptococcus pyogenesC 203.
Charles River albin mice (strain CD 1), of body weight comprised between 23-35 g, stabulated in groups of 6 for cage and normo-feeded with standard diet and water ad libitum were used. A suspension of S. pyogenes C 203 (corresponding about to 10^8 UFC) in tryptose broth (0.05 ml) was intranasally administered to each mouse anesthesized with a mixture of ethyl ether and chloroform.
The compounds under examination were intraperitoneally administered as a single dose, in 0.2% Tween suspension, 24 hours before or 1 hour after the infection.
Mice mortality observation was prolonged up to 10 days from the infection.
PD50 calculation, expressed as (mg/Kg), was carried out through the analysis of probit.
In vivo antibacterial activity, expressed as average protecting dose PD50 (mg/Kg), 24 hours before and 1 hour after the experimental pulmonary infection induced in mouse by Streptococcus pyogenes C 203, of the compounds 4, 10, 16-19, 21, 23, 26-27, 29-30, 33-35 and 38 and of the reference compounds Roxithromycin and Clarithromycin.

Converted amounts (≈) assume the structure as drawn. Read-outs that look alike come from different tables or passages of the source.

For `CC[C@H]1OC(=O)[C@H](C)[C@@H](O[C@H]2C[C@@](C)(OC)[C@@H](O)[C@H](C)O2)[C@H](C)[C@@H](O[C@@H]2O[C@H](C)C[C@H](N(C)C)[C@H]2O)[C@](C)(O)C[C@@H](C)/C(=N\OCCNCCCCCCNCc2ccc(OC)cc2)[C@H](C)[C@@H](O)[C@]1(C)O` [Compound 17, Erythromycin A (E)-9-[0-[2-[6-[(4-methoxyphenyl)methylamino]hexylamino]ethyl]oxime]], the MIC in test [1] is 0.0625 µg/mL; in [2], 0.0039 µg/mL; in [3], 0.0625 µg/mL; in test [4], 16 µg/mL (≈ 15.8 µM); in [5], 0.25 µg/mL (≈ 0.247 µM); in test [6], 0.0312 µg/mL. Further, the MIC in test [7] and in test [8] was 4 µg/mL (≈ 3.96 µM) in each case. The ED50 was determined as 1.17 mg/kg in test [9] (1 hour after infection) and 8.16 mg/kg in test [9] (24 hours before infection).
Consider `CC[C@H]1OC(=O)[C@H](C)[C@@H](O[C@H]2C[C@@](C)(OC)[C@@H](O)[C@H](C)O2)[C@H](C)[C@@H](O[C@@H]2O[C@H](C)C[C@H](N(C)C)[C@H]2O)[C@](C)(O)C[C@@H](C)/C(=N\OCCN(C)CCCCCCN(C)Cc2ccccc2)[C@H](C)[C@@H](O)[C@]1(C)O` [Compound 38, Erythromycin A (E)-9-[0-[2-[N-methyl-6-(N'-methyl-N'-phenylmethylamino)hexylamino]ethyl]oxime]], for which the MIC in test [1] turned out to be 0.0039 µg/mL; in test [2], 0.0078 µg/mL; in test [3], 0.0156 µg/mL; in test [4], 32 µg/mL (≈ 31.7 µM); in test [5], 0.5 µg/mL (≈ 0.495 µM); in test [6], 0.0078 µg/mL. Moreover, the MIC in [7] and in [8] was 8 µg/mL (≈ 7.93 µM) throughout. For the same molecule, the ED50 in [9] (1 hour after infection) and in test [9] (24 hours before infection) was 11.8 mg/kg each time.
Take `CC[C@H]1OC(=O)[C@H](C)[C@@H](O[C@H]2C[C@@](C)(OC)[C@@H](O)[C@H](C)O2)[C@H](C)[C@@H](O[C@@H]2O[C@H](C)C[C@H](N(C)C)[C@H]2O)[C@](C)(O)C[C@@H](C)/C(=N\OCCNCCCCCCNCc2ccccc2[N+](=O)[O-])[C@H](C)[C@@H](O)[C@]1(C)O` [Compound 33, Erythromycin A (E)-9-[0-[2-[6-[(2-nitrophenyl)methylamino]hexylamino]ethyl]oxime]]: the MIC in test [1] was 0.0039 µg/mL; in [2] it was 0.00097 µg/mL; in test [3] it was 0.0039 µg/mL; in [4] it was 16 µg/mL (≈ 15.6 µM); in test [5] it was 0.5 µg/mL (≈ 0.487 µM); in [6], 0.0039 µg/mL. Moreover, the MIC was found to be 4 µg/mL (≈ 3.9 µM) in test [7] and 2 µg/mL (≈ 1.95 µM) in [8]. In addition, the results for the ED50 in test [9] (1 hour after infection) and in test [9] (24 hours before infection) were 1.61 mg/kg and 6.11 mg/kg, respectively.
With `CC[C@H]1OC(=O)[C@H](C)[C@@H](O[C@H]2C[C@@](C)(OC)[C@@H](O)[C@H](C)O2)[C@H](C)[C@@H](O[C@@H]2O[C@H](C)C[C@H](N(C)C)[C@H]2O)[C@](C)(O)C[C@@H](C)/C(=N\OCCNCCCCCCNCc2ccc(C(F)(F)F)cc2)[C@H](C)[C@@H](O)[C@]1(C)O` [Compound 23, Erythromycin A (E)-9-[0-[2-[6-[(4-trifluoromethylphenyl)methylamino]hexylamino]ethyl]oxime]], the MIC in test [1] was found to be 0.0078 µg/mL; in [2] it was 0.0156 µg/mL; in [3], 0.0156 µg/mL; in [4], 4 µg/mL (≈ 3.81 µM); in [5], 1 µg/mL (≈ 0.953 µM); in test [6] it was 0.0156 µg/mL. In addition, the MIC amounted to 1 µg/mL (≈ 0.953 µM) in [7] and 2 µg/mL (≈ 1.91 µM) in test [8]. Further, in test [9] (1 hour after infection), the ED50 was 1.46 mg/kg.
Take `CC[C@H]1OC(=O)[C@H](C)[C@@H](O[C@H]2C[C@@](C)(OC)[C@@H](O)[C@H](C)O2)[C@H](C)[C@@H](O[C@@H]2O[C@H](C)C[C@H](N(C)C)[C@H]2O)[C@](C)(O)C[C@@H](C)/C(=N\OCCNCCCCCCNCc2ccc(Oc3ccccc3)cc2)[C@H](C)[C@@H](O)[C@]1(C)O` [Compound 29, Erythromycin A (E)-9-[0-[2-[6-[(4-phenoxyphenyl)methylamino]hexylamino]ethyl]oxime]]: the MIC is 0.0156 µg/mL in test [1]; 0.0039 µg/mL in [2]; 0.0312 µg/mL in test [3]; 2 µg/mL (≈ 1.86 µM) in test [4]; 0.5 µg/mL (≈ 0.466 µM) in test [5]; 0.0078 µg/mL in test [6]. The MIC in test [7] and in test [8] was 1 µg/mL (≈ 0.932 µM) each time. Further, the ED50 in [9] (1 hour after infection) stood at 7.65 mg/kg; in test [9] (24 hours before infection) it was 6.1 mg/kg.
As to `CC[C@H]1OC(=O)[C@H](C)[C@@H](O[C@H]2C[C@@](C)(OC)[C@@H](O)[C@H](C)O2)[C@H](C)[C@@H](O[C@@H]2O[C@H](C)C[C@H](N(C)C)[C@H]2O)[C@](C)(O)C[C@@H](C)/C(=N\OCCNCCCCCCNCc2ccc([N+](=O)[O-])cc2)[C@H](C)[C@@H](O)[C@]1(C)O` [Compound 35], the MIC in [1] is 0.0039 µg/mL; in test [2] it was 0.0019 µg/mL; in [3], 0.0078 µg/mL; in test [4], 4 µg/mL (≈ 3.9 µM); in test [5], 0.25 µg/mL (≈ 0.244 µM); in test [6], 0.0039 µg/mL. The MIC in test [7] is 1 µg/mL (≈ 0.974 µM); in [8], 0.5 µg/mL (≈ 0.487 µM). The ED50 was found to be 3 mg/kg in [9] (1 hour after infection) and 6 mg/kg in test [9] (24 hours before infection).
As for `CC[C@H]1OC(=O)[C@H](C)[C@@H](O[C@H]2C[C@@](C)(OC)[C@@H](O)[C@H](C)O2)[C@H](C)[C@@H](O[C@@H]2O[C@H](C)C[C@H](N(C)C)[C@H]2O)[C@](C)(O)C[C@@H](C)/C(=N\OCCNCCCCCCNCc2ccccc2C(F)(F)F)[C@H](C)[C@@H](O)[C@]1(C)O` [Compound 21, Erythromycin A (E)-9-[0-[2-[6-[(2-trifluoromethylphenyl)methylamino]hexylamino]ethyl]oxime]], the MIC in test [1] came to 0.0039 µg/mL; in [2], 0.0156 µg/mL; in test [3], 0.0078 µg/mL; in [4], 16 µg/mL (≈ 15.2 µM); in test [5], 1 µg/mL (≈ 0.953 µM); in [6] it was 0.0078 µg/mL. Further, the values for the MIC in test [7] and in [8] were 4 µg/mL (≈ 3.81 µM) and 2 µg/mL (≈ 1.91 µM), respectively. In addition, the ED50 in test [9] (1 hour after infection) came to 0.82 mg/kg; in [9] (24 hours before infection), 5.95 mg/kg.
As for `CC[C@H]1OC(=O)[C@H](C)[C@@H](O[C@H]2C[C@@](C)(OC)[C@@H](O)[C@H](C)O2)[C@H](C)[C@@H](O[C@@H]2O[C@H](C)C[C@H](N(C)C)[C@H]2O)[C@](C)(O)C[C@@H](C)/C(=N\OCCNCCCCCCNCc2cccc(C(F)(F)F)c2)[C@H](C)[C@@H](O)[C@]1(C)O` [Compound 19, Erythromycin A (E)-9-[0-[2-[6-[(3-trifluoromethylphenyl)methylamino]hexylamino]ethyl]oxime]], the MIC in test [1] turned out to be 0.0078 µg/mL; in test [2], 0.0156 µg/mL; in [3], 0.0156 µg/mL; in test [4] it was 8 µg/mL (≈ 7.62 µM); in [5], 1 µg/mL (≈ 0.953 µM); in test [6], 0.0156 µg/mL. The MIC in test [7] and in test [8] was 2 µg/mL (≈ 1.91 µM) throughout. The ED50 in [9] (1 hour after infection) was determined as 1.95 mg/kg; in test [9] (24 hours before infection), 4.84 mg/kg.

These data come from patent US5847092A (Zambon Group S.p.A., priority 1994, dated 1998).
